Here are results for five molecules from ChEMBL document CHEMBL1134339, “New 1-aryl-3-(4-arylpiperazin-1-yl)propane derivatives, with dual action at 5-HT1A serotonin receptors and serotonin transporter, as a new class of antidepressants” (J Med Chem, 2001).

In assay [1] the test system is Rattus norvegicus. The assay is described as follows: Effect on helpless behavior in rats and the number of escape failures was determined in shuttle-box session-3 (SB-3) at 30 mg/kg dose. The format is functional.
For assay [2], the system named is Rattus norvegicus. The assay is described as follows: Effect on helpless behavior in rats and the number of escape failures was determined in shuttle-box session-2 (SB-2) at 30 mg/kg dose. It counts as functional.
Assay [3] has as its system Rattus norvegicus. Briefly: Effect on helpless behavior in rats and the number of escape failures was determined in shuttle-box session-1 (SB-1) at 30 mg/kg dose. The format is functional.
The test system of assay [4] is Mus musculus. The assay is described as follows: Antidepressant-like activity in the forced swimming test (FST) in mice at 10 mg/kg dose; Antidepressant like activity. The format is functional.
The test system of assay [5] is Mus musculus. The assay is described as follows: Antidepressant-like activity in the forced swimming test (FST) in mice at 1 mg/kg dose; Antidepressant like activity. It counts as functional.
Assay [6] has as its target T1, 5-hydroxytryptamine receptor 1A (Rattus norvegicus, UniProt P19327).
T1 sequence (P19327 whole entry): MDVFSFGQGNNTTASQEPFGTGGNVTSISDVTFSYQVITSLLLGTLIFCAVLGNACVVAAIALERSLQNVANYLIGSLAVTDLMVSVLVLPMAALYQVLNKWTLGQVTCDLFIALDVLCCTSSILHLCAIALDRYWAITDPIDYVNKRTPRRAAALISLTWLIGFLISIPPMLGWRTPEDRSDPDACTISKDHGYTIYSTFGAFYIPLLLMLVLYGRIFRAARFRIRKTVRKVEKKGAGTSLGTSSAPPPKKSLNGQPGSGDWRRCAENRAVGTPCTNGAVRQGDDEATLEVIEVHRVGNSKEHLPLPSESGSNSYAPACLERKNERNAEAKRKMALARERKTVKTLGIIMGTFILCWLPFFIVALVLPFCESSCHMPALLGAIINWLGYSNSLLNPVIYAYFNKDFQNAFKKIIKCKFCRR
Briefly: Binding affinity to 5-hydroxytryptamine 1A receptor (5-HT 1A receptor, serotonin receptor) from rat cortex using [3H]8-OH-DPAT as radioligand. The settings on record: read-out: Ki.

Assay [7] deals with Mus musculus. The assay is described as follows: Time-dependent effect on 8-OH-DPAT-induced hypothermia (change in body temperature) after 15 min, in mice at 0.5 mg/kg dose. The format is functional.
Assay [8] has as its target Sodium-dependent serotonin transporter (Rattus norvegicus, UniProt P31652). The assay is described as follows: Binding affinity towards Serotonin transporter from rat cortex measured using [3H]paroxetine. The settings on record: read-out: Ki.
Assay [9] deals with Mus musculus. Briefly: Effect on immobility time in the forced swimming test (FST) in mice at 0.1 mg/kg dose. It counts as functional.
The subject of assay [10] is Mus musculus. Briefly: Effect on immobility time in the forced swimming test (FST) in mice at mg/kg dose. The format is functional.
Assay [11] deals with Mus musculus. Briefly: Effect on immobility time in the forced swimming test (FST) in mice at 0 mg/kg dose. It counts as functional.
Assay [12] concerns Mus musculus. The assay is described as follows: Time-dependent effect on 8-OH-DPAT-induced hypothermia (change in body temperature) after 30 min, in mice at 5 mg/kg dose. The format is functional.
For assay [13], the system named is Mus musculus. Briefly: Time-dependent effect on 8-OH-DPAT-induced hypothermia (change in body temperature) after 60 min, in mice at 0.5 mg/kg dose. The format is functional.
Assay [14] concerns Mus musculus. Briefly: Effect on immobility time in the forced swimming test (FST) in mice at 10 mg/kg dose. It counts as functional.
For assay [15], the system named is Mus musculus. Briefly: Antidepressant-like activity in the forced swimming test (FST) in mice at 0.1 mg/kg dose; Antidepressant like activity. The format is functional.
Assay [16] has as its system Mus musculus. The assay is described as follows: Time-dependent effect on 8-OH-DPAT-induced hypothermia (change in body temperature) after 60 min, in mice at 5 mg/kg dose. It counts as functional.
Assay [17] concerns Mus musculus. Briefly: Time-dependent effect on 8-OH-DPAT-induced hypothermia (change in body temperature) after 30 min, in mice at 0.5 mg/kg dose. The format is functional.
In assay [18] the test system is Mus musculus. Briefly: Time-dependent effect on 8-OH-DPAT-induced hypothermia (change in body temperature) after 15 min, in mice at 5 mg/kg dose. It counts as functional.
Assay [19] has as its system Mus musculus. The assay is described as follows: Time-dependent effect on 8-OH-DPAT-induced hypothermia (change in body temperature) after 30 min, in mice at 1 mg/kg dose. It counts as functional.
Assay [20] deals with Mus musculus. The assay is described as follows: Time-dependent effect on 8-OH-DPAT-induced hypothermia (change in body temperature) after 15 min, in mice at 1 mg/kg dose. The format is functional.
For assay [21], the system named is Mus musculus. Briefly: Time-dependent effect on 8-OH-DPAT-induced hypothermia (change in body temperature) after 60 min, in mice at 1 mg/kg dose. It counts as functional.
For assay [22], the target named is T2, 5-hydroxytryptamine receptor 1A (Homo sapiens) (UniProt P08908).
T2 sequence (whole entry): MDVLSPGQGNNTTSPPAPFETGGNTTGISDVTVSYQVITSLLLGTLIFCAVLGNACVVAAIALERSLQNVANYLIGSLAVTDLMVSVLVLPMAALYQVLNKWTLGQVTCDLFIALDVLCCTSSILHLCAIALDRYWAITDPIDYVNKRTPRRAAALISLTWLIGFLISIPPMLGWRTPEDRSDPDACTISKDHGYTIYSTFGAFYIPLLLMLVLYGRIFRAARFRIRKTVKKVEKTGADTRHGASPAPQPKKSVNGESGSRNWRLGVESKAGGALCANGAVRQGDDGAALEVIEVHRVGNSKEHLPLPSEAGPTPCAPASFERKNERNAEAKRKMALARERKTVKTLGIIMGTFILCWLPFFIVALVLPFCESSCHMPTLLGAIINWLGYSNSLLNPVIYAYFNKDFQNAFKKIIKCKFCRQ
The following applies: HeLa.
Description: Effect on Forskolin-Stimulated cAMP formation, in HeLa cells transfected with the 5-HT 1A receptor at 1 uM concentration

In assay [23] the test system is Mus musculus. Briefly: Effect on immobility time in the forced swimming test (FST) in mice at 1 mg/kg dose. The format is functional.
Assay [24] addresses T2, 5-hydroxytryptamine receptor 1A (Homo sapiens). Briefly: Percent increase in the Forskolin-Stimulated cAMP formation, in HeLa cells transfected with the 5-HT 1A receptor at 1 uM concentration. It counts as functional, cell-based. A general note: Cyclic AMP is a second messenger, typically raised through Gs and lowered through Gi signalling.
For assay [25] the target is unchanged. Briefly: Percent increase in the Forskolin-Stimulated cAMP formation, in HeLa cells transfected with the 5-HT 1A receptor [compound (1 uM)]. It counts as functional, cell-based.
Assay [26] has the same target. The settings on record: HeLa. The source holds these as a separate data set.
Description: Effect (1 uM) on Forskolin-Stimulated cAMP formation, in HeLa cells transfected with the 5-HT 1A receptor
Assay [27] has the same target. Briefly: Effect on Forskolin-Stimulated cAMP formation, in HeLa cells transfected with the 5-HT 1A receptor at 10 uM concentration. The format is functional, cell-based.
The target is the same in assay [28]. The assay is described as follows: Percent increase in the Forskolin-Stimulated cAMP formation, in HeLa cells transfected with the 5-HT 1A receptor at 10 uM concentration. The format is functional, cell-based.

Where only a bound is given, the exact number is not on record here.

Sodium-dependent serotonin transporter, sequence (P31652 whole entry): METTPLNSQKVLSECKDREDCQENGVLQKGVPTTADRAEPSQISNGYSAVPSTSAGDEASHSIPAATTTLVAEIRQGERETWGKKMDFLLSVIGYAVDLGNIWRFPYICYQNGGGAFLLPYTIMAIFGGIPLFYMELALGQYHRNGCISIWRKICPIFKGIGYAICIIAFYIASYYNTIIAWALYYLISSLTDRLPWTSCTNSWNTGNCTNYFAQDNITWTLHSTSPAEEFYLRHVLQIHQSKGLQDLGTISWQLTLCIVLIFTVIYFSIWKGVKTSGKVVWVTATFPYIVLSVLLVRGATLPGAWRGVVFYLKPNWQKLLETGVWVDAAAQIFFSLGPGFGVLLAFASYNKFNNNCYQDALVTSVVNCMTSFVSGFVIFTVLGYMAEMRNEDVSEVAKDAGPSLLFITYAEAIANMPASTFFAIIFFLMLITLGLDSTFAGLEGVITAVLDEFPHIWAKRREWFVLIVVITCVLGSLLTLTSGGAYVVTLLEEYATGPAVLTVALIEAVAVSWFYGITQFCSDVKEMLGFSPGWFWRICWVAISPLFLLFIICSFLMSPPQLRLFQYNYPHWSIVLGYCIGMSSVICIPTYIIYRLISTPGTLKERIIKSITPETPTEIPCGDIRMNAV

For `CNCCC(Oc1ccc(C(F)(F)F)cc1)c1ccccc1` (configuration not stated) [FLUOXETINE], the “No. of escape failures” value is listed as less than 3.2 with Rattus norvegicus [1], less than 4 in the assay with Rattus norvegicus [2] and 13 in the assay with Rattus norvegicus [3].

Take `COc1ccccc1N1CCN(CC/C(=N\O)c2csc3ccccc23)CC1`: the Activity in the assay with Mus musculus [4] is 50%; in the assay on Mus musculus [5], 22%; in the assay on Mus musculus [15] it was 0%. Besides, the Ki was found to be 0.06 µM in [6] and 0.095 µM in [8]. For the same molecule, the Temperature change in the assay on Mus musculus [7] was -2.16 °C; in the assay on Mus musculus [12], -2.99 °C; in the assay with Mus musculus [13], -1.7 °C; with Mus musculus [16], -1.31 °C; with Mus musculus [17], -2.18 °C; in the assay on Mus musculus [18], -2.77 °C. Also, the Immobility time in the assay with Mus musculus [9] is on record as 181.1 s; in the assay on Mus musculus [10], 150.1 s; with Mus musculus [11], 188.1 s; in the assay with Mus musculus [14], less than 102 s.

As for `COc1ccccc1N1CCN(CCN(C(=O)C2CCCCC2)c2ccccn2)CC1` [WAY-100,635], the Temperature change in the assay on Mus musculus [19] is less than -0.95 °C; in the assay on Mus musculus [20], less than -0.71 °C; in the assay with Mus musculus [21] it was -0.35 °C.

With `COc1ccccc1N1CCN(CC/C(=N\O)c2ccc(C)s2)CC1`, the figures for the Activity in the assay with Mus musculus [4], with Mus musculus [5] and in the assay on Mus musculus [15] were 13%, 51% and 0%, respectively. The figures for the cAMP in assay [22] and in assay [26] were 7.4 pmol/well and 9.8 pmol/well, respectively. The Immobility time in the assay with Mus musculus [23] is less than 79.2 s; with Mus musculus [9] it was 151.6 s; in the assay on Mus musculus [11], 142.7 s; with Mus musculus [14] it was 126.2 s. Further, the Ki in assay [6] turned out to be 0.13 µM; in assay [8] it was 0.065 µM. The cAMP increase worked out at 25% in assay [24] and 33% in assay [25]. Moreover, the Temperature change in the assay with Mus musculus [7] was -2.12 °C; in the assay on Mus musculus [12], -1.31 °C; in the assay with Mus musculus [13] it was -1.11 °C; with Mus musculus [16], -0.94 °C; in the assay with Mus musculus [17], -2.05 °C; in the assay with Mus musculus [18], -1.41 °C.

For the molecule `C=C[C@@]1(C)CC(=O)[C@]2(O)[C@@]3(C)[C@@H](O)CCC(C)(C)[C@@H]3[C@H](O)[C@H](OC(C)=O)[C@@]2(C)O1`, the cAMP in assay [27] was 29.7 pmol/well. The Activity in assay [28] worked out at 100%.

What is called Ki is a dissociation constant, usually derived from enzyme kinetics or from competition with a known ligand.
